Results from patent US6902931B1 (priority 1998, dated 2005).

Legend:
[1] = tested on: NIH/3T3 murine fibroblasts
[2] = tested on: NIH/3T3 murine fibroblasts; assay: Viability after vacuum drying and rehydration; assay type: cell-based; conditions: H5-porated; for protection of cells subjected to vacuum drying: 0.3 M sugar; for cells that successfully attached at three hours / survival rate: 0.3M sugar; for cells that successfully attached at three hours: vacuum dried 2 hours at ambient temperature, rehydrated; for survival rate: vacuum dried, adjusted for cell loss using control samples
Description: The efficacy of intracellular trehalose for vacuum dried fibroblasts was also tested. NIH/3T3 murine fibroblasts, prepared as in Example 1, were resuspended in phosphate buffered saline (PBS) solution and the cell density was counted. Cell density was then adjusted to 100,000 cells/ml by diluting with PBS and the sample was divided into three equal aliquots of 4.0 ml each. To each aliquot, 1.0 ml of 25 μg/ml H5 was added, reducing cell density to 8×10^4. The aliquots were incubated at room temperature for 15 minutes with occasional mixing.
In the first two aliquots, enough 1.0M stock solution of either trehalose or sucrose in PBS was added to obtain a final sugar concentration of 0.3M. In the third aliquot, an equivalent amount of PBS, without sugar, was added.
The three aliquots were dispersed in triplicate wells at 20 μl/well into four duplicate 12-well plates. Two of the twelve well plates were incubated at 37° C. and 10% CO2 as controls. The remaining two plates were vacuum dried for 2 hours at ambient temperature. After drying, the dried samples were rehydrated and the poration reversed with serum containing DMEM.
Viability assays were performed by counting attached cells at 3 hours, and cells that remained attached and divided during the next 24 hours. The experiments were repeated three times. […] Adjusting for cell loss due to handling, poration, etc. using the control samples, survival rates of 4% for the cells dried in trehalose and 3% for the cells dried in sucrose were obtained.

[3] = tested on: NIH/3T3 murine fibroblasts; conditions: mouse, pH 7.4
in vitro = conditions: mouse, pH 7.4
[4] = tested on: NIH/3T3 murine fibroblasts; assay: Clonogenic assay; assay type: cell-based; conditions: post-thaw; H5 and 0.4 M trehalose; from approximately 200±12 plated cells, one week
Description: For each condition, approximately 200 of the cells that had plated in 3 hours were replated in a […] for one week. To obtain 200 fibroblasts, cells were diluted to 2×10^5 cells/ml, and 1 μl of cell solution was introduced into a P60 petri dish (Falcon) containing 12 ml of DMEM with BCS. After one week, cells were fixed by a 0.5% glutaraldehyde wash and stained by Rhodamine B (Sigma) to enhance colony visibility. The number of colonies formed was determined by visual inspection.

3T3 fibroblasts = assay: Volumetric response of porated cells in hypertonic sugar solution (sugar uptake); assay type: cell-based, murine
Description: Sugar may be added to the cell suspension in an HBS solution to the final desired concentration. Porated cells may be incubated in the sugar containing solution for 45 minutes. […] Of course the length of time required for sugar uptake may vary with the type of cell and the level of cell poration. Sugar uptake may be measured by both the uptake of radiolableled sugar into porated cells as well as by the volumetric response of porated cells placed in a hypertonic sugar solution, yielding statistically correlative results.
Following poration, 0-1.0 M trehalose (final concentration) in HBS solution (Sigma) was added to the cell suspension, as indicated in FIG. 4. To allow for trehalose uptake, porated cells were incubated in the solution for 45 min. […] [Russo et al., “Reversible permeabilization of plasma membranes with an engineered switchable pore,” Nature Biotech. 15, 278-282 (1997).] This uptake was measured by both the uptake of radiolableled sugar into porated cells as well as by the volumetric response of porated cells placed in a hypertonic sugar solution, yielding statistically correlative results. By repeating the volumetric experiments using hypertonic trehalose solutions and 25 μg/ml of porating agent, volumetric equilibration over 90% over a 45 min interval was achieved, indicating the equilibration of intracellular trehalose concentration with that of the suspending solution.

Row | Compound | additional loss of porated cells (18 hours growth) [1] | fibroblasts withstanding osmotic shock (18 hours growth) [1] | higher than all control data to which trehalose was not added [1] | loss of population between 1 hour and 3h / 18 hours [1] | loss of viability or function [1] | population loss [1] | protection of cells subjected to vacuum drying [2] | cells that successfully attached at three hours [2] | survival rate [2] | viability and function after 1 hour [3] | viability (in vitro) | colonies formed [4] | trehalose concentration at which fibroblasts reach minimum volume (3T3 fibroblasts; data not shown) | volumetric equilibration (3T3 fibroblasts; hypertonic trehalose solutions, 25 μg/ml porating agent, 45 min interval)
1 | OC[C@H]1O[C@H](O[C@H]2O[C@H](CO)[C@@H](O)[C@H](O)[C@H]2O)[C@H](O)[C@@H](O)[C@@H]1O [Trehalose, trehalose] | 10% | over 95% | 70-80% | over 60% | did not demonstrate a significant loss of viability | loss of half of their populations | effective in protecting cells subjected to vacuum drying | 48±3 cells | 4% | 70-80% | 10% | 211.6±5.2 colonies | about 0.4 M | over 90%
2 | OC[C@H]1O[C@@](CO)(O[C@H]2O[C@H](CO)[C@@H](O)[C@H](O)[C@H]2O)[C@@H](O)[C@@H]1O [sucrose] | – | – | – | – | – | – | effective in protecting cells subjected to vacuum drying | 36±3 cells | 3% | – | – | – | – | –
